{"source": "patent EP4792822A1", "about": "“USE OF PEPTIDE AMIDE COMPOUND IN PREPARATION OF DRUG FOR […] AND VOMITING” (Haisco Pharmaceutical Group Co., Ltd., priority 2023, dated 2025)", "test_system": "subjects undergoing elective laparoscopic abdominal or gynaecological surgery under general anaesthesia", "test": "Example 3: placebo-controlled dose study of compound 1 injection for the prevention of postoperation nausea and vomiting", "format": "in vivo, patients", "details": "for Complete response (CR) within 24 h after surgery: single intravenous bolus; for Significant nausea within 24 h after surgery: VAS score ≥ 4 cm; for subject satisfaction scores for PONV / time to the first occurrence of emesis (vomiting or retching) or administration of rescue treatment within 24 h after surgery: mean ± standard deviation", "protocol": "Study period: Treatment duration: 24 h after surgery; Follow-up duration: 48 h after surgery\nProtocol: This study was a multicentre, randomised, double-blind, placebo-controlled study. About 200 subjects undergoing elective laparoscopic abdominal or gynaecological surgery under general anaesthesia were planned to be enrolled and randomised at a 1 : 1 : 1 : 1 ratio into the compound 1-60 µg group (50 subjects), the compound 1-120 µg group (50 subjects), the compound 1-180 µg group (50 subjects), and the placebo group (50 subjects).\nA single dose of the study drug was administered within 15 min before the end of surgery. The dosing regimen is as follows: Compound 1-60 µg group: A single dose of 60 µg of compound 1 injection was administered within 15 min before the end of surgery, via intravenous bolus injection, with an intravenous bolus injection time of not less than 30 s.\nCompound 1-120 µg group: A single dose of 120 µg of compound 1 injection was administered within 15 min before the end of surgery, via intravenous bolus injection, with an intravenous bolus injection time of not less than 30 s.\nCompound 1-180 µg group: A single dose of 180 µg of compound 1 injection was administered within 15 min before the end of surgery, via intravenous bolus injection, with an intravenous bolus injection time of not less than 30 s.\nPlacebo group: A single dose of placebo was administered within 15 min before the end of surgery, via intravenous bolus injection, with an intravenous bolus injection time of not less than 30 s.\nPrimary efficacy endpoint: Complete response (CR) rate at 24 h after surgery (CR is defined as no vomiting or retching and no use of rescue medication within 24 h after surgery).\nSecondary efficacy endpoints: Proportion of subjects experiencing nausea after surgery; proportion of subjects experiencing significant nausea after surgery (significant nausea is defined as a VAS score ≥ 4 cm); proportion of subjects experiencing vomiting after surgery (vomiting [even with expulsion of a minimal amount of gastric contents] or retching [muscular movement of vomiting without expulsion of gastric contents]); proportion of subjects using rescue medication after surgery; time to the first occurrence of emesis (vomiting or retching) or administration of rescue treatment within 24 h after surgery, whichever occurs first; cumulative dosage of analgesic agents within 24 h after surgery; and subject and investigator satisfaction scores for PONV.\nSafety endpoints: Incidence and severity of adverse events; and vital signs, 12-lead ECG, physical examination, and laboratory examinations.\nSubjects who met all inclusion criteria and none of the exclusion criteria received a single dose of compound 1 injection or placebo within 15 min before the end of surgery (defined as the completion of the last suture of the wound).\nThe use of any antiemetic agents or agents with antiemetic effects, other than the study drug and rescue medications specified in the protocol, was prohibited from 24 h before the start of surgery (defined as the start of skin incision) to 24 h after the end of surgery. Prophylactic antiemetic treatment was prohibited.\nWithin 24 h after the end of surgery, if the subject experienced ≥ 1 episode of vomiting, retching, or nausea and complained of requiring antiemetic treatment, the subject received rescue antiemetic agents specified in the protocol after assessment by the investigator (tropisetron was the preferred rescue antiemetic agent; it was recommended that an initial intravenous dose of 2.5 mg be administered, followed by additional doses as needed, not to exceed 10 mg within 24 h). If tropisetron was insufficiently effective, other agents were used by the investigator in accordance with routine clinical practice.\nWithin 30 min after the end of surgery, a PCA pump containing morphine hydrochloride injection was initiated. Subjects self-administered analgesia by pressing the PCA pump when experiencing pain. […]", "key": {"[1]": {"details": "Example 3, compared with placebo"}}}
{"smiles": "CC(=O)N1CC2(CCN(C(=O)[C@@H](CCCCN)NC(=O)[C@@H](CC(C)C)NC(=O)[C@@H](Cc3ccccc3)NC(=O)[C@H](N)Cc3ccccc3)CC2)C1", "note": "[Compound 1, (2R)-N-[(1R)-1-(2-acetyl-2,7-diazaspiro[3.5]nonane-7-carbonyl)-5-amino-pentyl]-2-[[(2R)-2-[[(2R)-2-amino-3-phenyl-propionyl]amino]-3-phenylpropionyl]amino]-4-methyl-pentanamide]", "values": [{"measurement": "investigator satisfaction scores for PONV", "setting": "60 µg group", "value": "8.9 ± 1.84"}, {"measurement": "Nausea within 24 h after surgery", "setting": "60 µg group (N = 49)", "value": "18 (36.7) n (%)"}, {"measurement": "Use of rescue medication within 24 h after surgery", "setting": "60 µg group (N = 49)", "value": "7 (14.3) n (%)"}, {"measurement": "Vomiting within 24 h after surgery", "setting": "60 µg group (N = 49)", "value": "12 (24.5) n (%)"}, {"measurement": "Complete response (CR) within 24 h after surgery", "setting": "60 µg group (N = 49)", "value": "36 (73.5) n (%)"}, {"measurement": "Significant nausea within 24 h after surgery", "setting": "60 µg group (N = 49)", "value": "9 (18.4) n (%)"}, {"measurement": "subject satisfaction scores for PONV", "setting": "60 µg group", "value": "9.0 ± 1.89"}, {"measurement": "time to the first occurrence of emesis (vomiting or retching) or administration of rescue treatment within 24 h after surgery", "setting": "60 µg group", "value": "18.3109 ± 9.6700", "unit": "h"}, {"measurement": "CR rate at 24 h after surgery, comparison among dose groups", "setting": "120 µg group", "value": "highest CR rate"}, {"measurement": "investigator satisfaction scores for PONV", "setting": "120 µg group", "value": "8.9 ± 1.71"}, {"measurement": "Nausea within 24 h after surgery", "setting": "120 µg group (N = 49)", "value": "11 (22.4) n (%)"}, {"measurement": "Use of rescue medication within 24 h after surgery", "setting": "120 µg group (N = 49)", "value": "6 (12.2) n (%)"}, {"measurement": "Vomiting within 24 h after surgery", "setting": "120 µg group (N = 49)", "value": "8 (16.3) n (%)"}, {"measurement": "Complete response (CR) within 24 h after surgery", "setting": "120 µg group (N = 49)", "value": "40 (81.6) n (%)"}, {"measurement": "Significant nausea within 24 h after surgery", "setting": "120 µg group (N = 49)", "value": "7 (14.3) n (%)"}, {"measurement": "subject satisfaction scores for PONV", "setting": "120 µg group", "value": "9.1 ± 1.52"}, {"measurement": "time to the first occurrence of emesis (vomiting or retching) or administration of rescue treatment within 24 h after surgery", "setting": "120 µg group", "value": "20.1119 ± 8.4192", "unit": "h"}, {"measurement": "investigator satisfaction scores for PONV", "setting": "180 µg group", "value": "9.0 ± 1.39"}, {"measurement": "Nausea within 24 h after surgery", "setting": "180 µg group (N = 50)", "value": "16 (32.0) n (%)"}, {"measurement": "Use of rescue medication within 24 h after surgery", "setting": "180 µg group (N = 50)", "value": "8 (16.0) n (%)"}, {"measurement": "Vomiting within 24 h after surgery", "setting": "180 µg group (N = 50)", "value": "9 (18.0) n (%)"}, {"measurement": "Complete response (CR) within 24 h after surgery", "setting": "180 µg group (N = 50)", "value": "39 (78.0) n (%)"}, {"measurement": "Significant nausea within 24 h after surgery", "setting": "180 µg group (N = 50)", "value": "11 (22.0) n (%)"}, {"measurement": "subject satisfaction scores for PONV", "setting": "180 µg group", "value": "9.0 ± 1.65"}, {"measurement": "time to the first occurrence of emesis (vomiting or retching) or administration of rescue treatment within 24 h after surgery", "setting": "180 µg group", "value": "19.7203 ± 8.7225", "unit": "h"}, {"measurement": "TEAEs leading to study withdrawal or death", "setting": "Example 3", "value": "no TEAEs leading to study withdrawal or death were observed"}, {"measurement": "TESAEs (treatment-emergent serious adverse events)", "setting": "Example 3", "value": "No TESAEs (treatment-emergent serious adverse events) occurred"}, {"measurement": "overall safety", "setting": "Example 3", "value": "good overall safety"}, {"measurement": "severity of TEAEs and ADRs", "setting": "Example 3, all TEAEs and ADRs", "value": "Grade 1-2"}, {"measurement": "incidence of ADRs", "setting": "[1]", "value": "slightly higher than that in the placebo group"}, {"measurement": "overall incidence of TEAEs", "setting": "[1]", "value": "lower than that in the placebo group"}, {"measurement": "proportion of subjects experiencing nausea, severe nausea, vomiting, and using rescue medication within 24 h after surgery, compared with placebo", "setting": "each dose group", "value": "lower than that in the placebo group"}, {"measurement": "complete response (CR) rate at 24 h after surgery, compared with placebo", "setting": "each dose group (60, 120, 180 µg), P < 0.05", "value": "higher than that in the placebo group"}, {"measurement": "PONV satisfaction scores of investigators, compared with placebo", "setting": "each dose group, P < 0.05", "value": "higher than those in the placebo group"}, {"measurement": "PONV satisfaction scores of subjects, compared with placebo", "setting": "each dose group, P < 0.05", "value": "higher than those in the placebo group"}, {"measurement": "time to the first occurrence of emesis (vomiting or retching) or administration of rescue treatment within 24 h after surgery, compared with placebo", "setting": "each dose group, P < 0.05", "value": "later than that in the placebo group"}]}
